Experimental data published in ChEMBL document CHEMBL1147814, “Discovery of SB-705498: a potent, selective and orally bioavailable TRPV1 antagonist suitable for clinical development” (Bioorg Med Chem Lett, 2006).
In brackets after ≈: the same amount, converted by molar mass. Activity calls are given as the source filed them. No cut-off for these calls is given here.

Key:
[1] = (§1) Intrinsic clearance in human liver microsomes; assay type: ADME, Microsome; settings: liver microsomes
[2] = molecular target: Transient receptor potential cation channel subfamily V member 1 (Rattus norvegicus) (UniProt O35433); assay: Antagonist activity against capsaicin-mediated activation of rat TRPV1 by FLIPR; assay type: functional
Transient receptor potential cation channel subfamily V member 1 (Rattus norvegicus), sequence (O35433 whole entry): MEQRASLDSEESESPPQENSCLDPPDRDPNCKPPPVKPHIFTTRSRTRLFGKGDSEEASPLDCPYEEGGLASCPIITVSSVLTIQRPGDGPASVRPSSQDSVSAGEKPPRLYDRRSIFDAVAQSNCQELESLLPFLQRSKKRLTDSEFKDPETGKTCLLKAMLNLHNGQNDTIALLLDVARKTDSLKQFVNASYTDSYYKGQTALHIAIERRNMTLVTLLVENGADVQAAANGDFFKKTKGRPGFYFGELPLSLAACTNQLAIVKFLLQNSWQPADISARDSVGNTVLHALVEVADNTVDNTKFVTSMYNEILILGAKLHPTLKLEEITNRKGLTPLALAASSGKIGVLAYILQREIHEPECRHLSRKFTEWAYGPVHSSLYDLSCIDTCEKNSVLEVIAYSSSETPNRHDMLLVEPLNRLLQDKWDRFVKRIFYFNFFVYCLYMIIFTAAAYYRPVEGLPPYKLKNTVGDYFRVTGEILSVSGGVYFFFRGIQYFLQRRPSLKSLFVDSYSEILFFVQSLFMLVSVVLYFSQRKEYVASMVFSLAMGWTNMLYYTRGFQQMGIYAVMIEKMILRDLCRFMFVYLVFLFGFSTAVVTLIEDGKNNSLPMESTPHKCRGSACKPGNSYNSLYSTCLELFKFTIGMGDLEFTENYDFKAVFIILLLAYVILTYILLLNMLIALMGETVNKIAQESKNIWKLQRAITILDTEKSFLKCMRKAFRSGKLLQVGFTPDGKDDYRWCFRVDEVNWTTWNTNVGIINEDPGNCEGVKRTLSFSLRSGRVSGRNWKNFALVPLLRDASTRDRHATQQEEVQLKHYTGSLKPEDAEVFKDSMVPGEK

[3] = Bioavailability in guinea pig at 1 mg/kg, po; assay type: ADME, organism-based, Cavia porcellus; settings: in vivo
Cavia porcellus = species on record: Cavia porcellus; assay: Intrinsic clearance in guinea pig liver microsomes; assay type: ADME, Microsome
[4] = Volume of distribution in rat; assay type: ADME, organism-based; settings: in vivo, read-out: Vdss
[5] = Solubility in stimulated gastric fluid; assay type: physicochemical; settings: simulated gastric fluid
[6] = molecular target: Transient receptor potential cation channel subfamily V member 1 (Cavia porcellus) (UniProt Q6R5A3); assay: Activity against adjuvant-induced arthritis assessed as reversal of allodynia in guinea pig at 10 mg/kg, po; assay type: functional, organism-based; parameters: dose 10 mg/kg
Transient receptor potential cation channel subfamily V member 1 (Cavia porcellus), sequence (Q6R5A3 whole entry): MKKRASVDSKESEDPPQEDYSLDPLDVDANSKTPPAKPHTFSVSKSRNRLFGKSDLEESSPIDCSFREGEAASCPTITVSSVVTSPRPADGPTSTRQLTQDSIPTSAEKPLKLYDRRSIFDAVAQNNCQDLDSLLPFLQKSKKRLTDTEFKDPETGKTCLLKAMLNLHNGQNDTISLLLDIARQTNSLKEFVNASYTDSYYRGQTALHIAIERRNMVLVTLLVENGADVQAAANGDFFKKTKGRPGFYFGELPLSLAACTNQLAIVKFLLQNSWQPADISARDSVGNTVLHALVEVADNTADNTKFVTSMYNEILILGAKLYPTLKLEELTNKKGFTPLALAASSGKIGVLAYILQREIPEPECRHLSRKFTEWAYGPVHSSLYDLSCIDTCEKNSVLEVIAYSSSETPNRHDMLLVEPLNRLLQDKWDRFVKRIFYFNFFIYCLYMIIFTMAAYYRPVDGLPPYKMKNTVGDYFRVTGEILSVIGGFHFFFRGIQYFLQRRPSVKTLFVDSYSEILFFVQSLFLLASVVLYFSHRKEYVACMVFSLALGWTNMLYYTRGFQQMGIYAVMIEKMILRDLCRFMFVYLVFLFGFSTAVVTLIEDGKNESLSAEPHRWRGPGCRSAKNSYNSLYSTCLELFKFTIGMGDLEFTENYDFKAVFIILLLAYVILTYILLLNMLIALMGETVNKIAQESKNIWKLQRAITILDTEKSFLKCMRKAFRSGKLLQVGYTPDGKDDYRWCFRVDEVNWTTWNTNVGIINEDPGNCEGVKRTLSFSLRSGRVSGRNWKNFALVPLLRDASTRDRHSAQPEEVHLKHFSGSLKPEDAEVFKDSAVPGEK

[7] = molecular target: Transient receptor potential cation channel subfamily V member 1 (Rattus norvegicus) (UniProt O35433); assay: Activity against capsaicin-induced secondary hyperalgesia assessed as reversal of allodynia in rat at 30 mg/kg, po after 2 hrs; assay type: functional, organism-based; parameters: dose 30 mg/kg
[8] = Bioavailability in rat at 3 mg/kg, po; assay type: ADME, organism-based; settings: in vivo
[9] = Volume of distribution in dog; assay type: ADME, organism-based, Canis lupus familiaris; settings: in vivo, read-out: Vdss
[10] = Clearance in guinea pig; assay type: ADME, organism-based, Cavia porcellus; settings: in vivo
[11] = molecular target: Transient receptor potential cation channel subfamily V member 1 (Homo sapiens) (UniProt Q8NER1); assay: Inhibition of capsaicin-mediated activation of human TRPV1 in HEK293 cells at 1 uM by patch clamp method; assay type: functional, cell-based
Transient receptor potential cation channel subfamily V member 1 (Homo sapiens), sequence (Q8NER1 whole entry): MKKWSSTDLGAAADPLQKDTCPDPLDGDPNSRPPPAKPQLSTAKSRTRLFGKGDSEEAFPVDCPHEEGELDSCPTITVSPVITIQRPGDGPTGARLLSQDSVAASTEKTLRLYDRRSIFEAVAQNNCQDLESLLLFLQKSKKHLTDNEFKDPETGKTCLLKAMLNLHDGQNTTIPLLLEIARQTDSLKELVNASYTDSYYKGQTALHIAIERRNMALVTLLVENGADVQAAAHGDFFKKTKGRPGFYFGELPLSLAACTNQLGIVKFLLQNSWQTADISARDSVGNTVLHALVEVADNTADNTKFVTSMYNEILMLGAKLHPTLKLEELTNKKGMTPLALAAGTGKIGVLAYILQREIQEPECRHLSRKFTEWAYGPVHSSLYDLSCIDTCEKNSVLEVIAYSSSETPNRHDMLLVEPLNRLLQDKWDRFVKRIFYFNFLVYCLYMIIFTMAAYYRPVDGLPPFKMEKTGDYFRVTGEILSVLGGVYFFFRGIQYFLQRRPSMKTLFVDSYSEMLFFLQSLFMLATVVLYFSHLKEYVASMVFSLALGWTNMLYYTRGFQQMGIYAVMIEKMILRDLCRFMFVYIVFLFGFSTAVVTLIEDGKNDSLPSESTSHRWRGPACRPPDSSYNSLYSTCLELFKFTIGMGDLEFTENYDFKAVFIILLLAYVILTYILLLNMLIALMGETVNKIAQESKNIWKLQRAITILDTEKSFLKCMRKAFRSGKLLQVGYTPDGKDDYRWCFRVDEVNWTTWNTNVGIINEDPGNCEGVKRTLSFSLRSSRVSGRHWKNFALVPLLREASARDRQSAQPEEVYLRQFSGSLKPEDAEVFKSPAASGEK

[12] = Clearance in dog; assay type: ADME, organism-based, Canis lupus familiaris; settings: in vivo
[13] = molecular target: Transient receptor potential cation channel subfamily V member 1 (Homo sapiens) (UniProt Q8NER1); assay: Blockade of pH activated human TRPV1 at 1 uM; assay type: functional
[14] = Clearance in rat; assay type: ADME, organism-based; settings: in vivo
[15] = Half life in dog; assay type: ADME, organism-based, Canis lupus familiaris; settings: in vivo
[16] = Half life in rat; assay type: ADME, organism-based; settings: in vivo
[17] = Half life in guinea pig; assay type: ADME, organism-based, Cavia porcellus; settings: in vivo
[18] = molecular target: Transient receptor potential cation channel subfamily V member 1 (Cavia porcellus) (UniProt Q6R5A3); assay: Antagonist activity against capsaicin-mediated activation of guinea pig TRPV1 by FLIPR; assay type: functional
[19] = Bioavailability in dog at 3 mg/kg, po; assay type: ADME, organism-based, Canis lupus familiaris; settings: in vivo
[20] = molecular target: Transient receptor potential cation channel subfamily V member 1 (Homo sapiens) (UniProt Q8NER1); assay: Blockade of heat activated human TRPV1 at 1 uM; assay type: functional
[21] = Volume of distribution in guinea pig; assay type: ADME, organism-based, Cavia porcellus; settings: in vivo, read-out: Vdss
[22] = molecular target: Transient receptor potential cation channel subfamily V member 1 (Rattus norvegicus) (UniProt O35433); assay: Activity against capsaicin-induced secondary hyperalgesia assessed as reversal of allodynia in rat at 10 mg/kg, po after 2 hrs; assay type: functional, organism-based; parameters: dose 10 mg/kg
Canis familiaris = species on record: Canis familiaris; assay: Intrinsic clearance in dog liver microsomes; assay type: ADME, Canis lupus familiaris, Microsome
Liver microsomes = assay: as §1; assay type: ADME, Microsome; settings: microsomes
[23] = Aqueous solubility of the compound; assay type: physicochemical
[24] = molecular target: Transient receptor potential cation channel subfamily V member 1 (Homo sapiens) (UniProt Q8NER1); assay: Inhibition of heat-mediated activation of human TRPV1 in HEK293 cells at 1 uM by patch clamp method

## O=C(NCCN1CCc2cc(F)ccc21)Nc1ccccc1Br
[1]
  CLint scaled: 19 mL/min/kg
[2]
  pKb: 7.1

## CCN(CCNC(=O)Nc1ccccc1Br)c1cccc(C)c1
[1]
  CLint scaled: 41 mL/min/kg
[2]
  pKb: 7.8

## O=C(Nc1ccccc1Br)N[C@@H]1CCN(c2ccc(Br)cn2)C1
[2]
  pKb: 7.2

## O=C(Nc1ccccc1Br)N[C@@H]1CCN(c2cccc(C(F)(F)F)n2)C1
[2]
  pKb: 7.2

## O=C(Nc1ccccc1Br)N[C@@H]1CCN(c2ccc(C(F)(F)F)cn2)C1 [SB-705498]
[3]
  bioavailability: 39%
Cavia porcellus
  CL: 4.2 mL/min/g
[4]
  Vd: 0.9 L/kg
[5]
  solubility: 400 µg/mL (≈ 932 µM)
[6]
  Activity: 80%
[7]
  Activity: Active
[8]
  bioavailability: 86%
[9]
  Vd: 1.9 L/kg
[10]
  clearance: 34 mL/min/kg
[11]
  inhibition: 102%
[12]
  clearance: 11 mL/min/kg
[13]
  Activity: 104%
[14]
  clearance: 4 mL/min/kg
[15]
  half-life: 3.4 h
[16]
  half-life: 3.1 h
[17]
  half-life: 2.6 h
[18]
  pKb: 7.3
[19]
  bioavailability: 42%
[20]
  Activity: 97%
[21]
  Vd: 3.6 L/kg
[22]
  Activity: Active
[2]
  pKb: 7.5
Canis familiaris
  CL: 0.9 mL/min/g

## Cc1ccc(N2CC[C@@H](NC(=O)Nc3ccccc3Br)C2)nc1
[2]
  pKb: < 6.7

## Cc1ccc2c(c1)CCCN2CCNC(=O)Nc1ccccc1Br
[1]
  CLint scaled: > 45 mL/min/kg
[2]
  pKb: 7.4

## N#Cc1ccc(N2CC[C@@H](NC(=O)Nc3ccccc3Br)C2)nc1
[2]
  pKb: 6.7

## Cc1cccc(N2CC[C@@H](NC(=O)Nc3ccccc3Br)C2)c1
Liver microsomes
  CL: <= 4 ml/min/g
[23]
  solubility: < 100 µg/mL
[24]
  Activity: Active
[13]
  Activity: Active
[20]
  Activity: Active
[2]
  pKb: 7.7

## O=C(NCCN1CCc2c(F)cccc21)Nc1ccccc1Br
[2]
  pKb: 7.4

## O=C(Nc1ccccc1Br)N[C@@H]1CCN(c2ccc(Cl)cn2)C1
[2]
  pKb: 7.3

## O=C(Nc1ccccc1Br)N[C@@H]1CCN(c2cccc(F)c2)C1
Liver microsomes
  CL: <= 4 ml/min/g
[23]
  solubility: < 100 µg/mL
[2]
  pKb: 7.8

## O=C(Nc1ccccc1Br)N[C@@H]1CCN(c2cc(C(F)(F)F)ccn2)C1
[2]
  pKb: 6.9

## O=C(NCCN1CCc2ccccc21)Nc1ccccc1Br
[2]
  pKb: 6.8

## O=C(Nc1ccccc1Br)N[C@@H]1CCN(c2ncccc2C(F)(F)F)C1
[2]
  pKb: 7.1

## Cc1ccc2c(c1)CCN2CCNC(=O)Nc1ccccc1Br
[2]
  pKb: 7.3

## Cc1ccc(N2CC[C@@H](NC(=O)Nc3ccccc3Br)C2)cc1F
Liver microsomes
  CL: <= 4 ml/min/g
[23]
  solubility: < 100 µg/mL
[2]
  pKb: 8.3

## Cc1cccc2c1CCN2CCNC(=O)Nc1ccccc1Br
[2]
  pKb: 7.4

## Cc1cccc(N2CC[C@H](NC(=O)Nc3ccccc3Br)C2)c1
[2]
  pKb: < 6.8

## O=C(Nc1ccccc1Br)N[C@@H]1CCN(c2ccccn2)C1
[2]
  pKb: < 6.6

## O=C(Nc1ccccc1Br)N[C@@H]1CCN(c2ccc(F)c(F)c2)C1
Liver microsomes
  CL: <= 4 ml/min/g
[23]
  solubility: < 100 µg/mL
[2]
  pKb: 8.1
